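Cells were grown in 96-well plates and exposed to each compound for 48 hours at five concentrations; endpoints were interpolated linearly between bracketing concentrations, or set to the highest concentration if not reached. At the GI50, growth is halved.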 The source made the active and inactive calls. Cut-off read from the data, not from the text of the source: active = GI50 up to about 1.1 µM and inactive = higher.
Legend:
Assay in all cases: growth of human tumour cells (NCI), 48 h
[1] = system: MDA-MB-231
[2] = system: Malme-3M
[3] = system: UACC-257
[4] = system: SK-MEL-2
[5] = system: Hs-578T
[6] = system: RXF 393
[7] = system: MDA-N
[8] = system: DU-145
[9] = system: COLO 205
[10] = system: OVCAR-5
[11] = system: 786-0
[12] = system: NCI-H460
[13] = system: HL-60
[14] = system: MCF7
[15] = system: KM12
[16] = system: MOLT-4
[17] = system: K562
[18] = system: HCT-15
[19] = system: OVCAR-4
[20] = system: IGROV-1
[21] = system: M14
[22] = system: SK-OV-3
[23] = system: NCI/ADR-RES
[24] = system: U-251
[25] = system: PC-3
[26] = system: HOP-92
[27] = system: MDA-MB-435
[28] = system: HT-29
[29] = system: OVCAR-8
[30] = system: SF-295
[31] = system: SNB-75
[32] = system: SN12C
[33] = system: HCT-116
[34] = system: EKVX
[35] = system: ACHN
[36] = system: SW-620
[37] = system: SNB-19
[38] = system: NCI-H23
[39] = system: OVCAR-3
[40] = system: CAKI-1
[41] = system: LOX IMVI
[42] = system: SK-MEL-5
[43] = system: SF-268
[44] = system: BT-549
[45] = system: CCRF-CEM
[46] = system: A549
[47] = system: RPMI-8226
[48] = system: T47D
[49] = system: TK-10
[50] = system: SR
[51] = system: HOP-62
[52] = system: NCI-H226
[53] = system: SF-539
[54] = system: NCI-H522
[55] = system: A498
[56] = system: UACC-62
[57] = system: SK-MEL-28
[58] = system: HCC 2998
[59] = system: UO-31

## C1CCN(CCC2CCCCN2)CC1 (stereo unspecified)
[1]
  GI50: > 100 µM (inactive)
[2]
  GI50: > 100 µM (inactive)
[3]
  GI50: > 100 µM (inactive)
[4]
  GI50: > 100 µM (inactive)
[5]
  GI50: > 100 µM (inactive)
[6]
  GI50: > 100 µM (inactive)
[7]
  GI50: > 100 µM (inactive)
[8]
  GI50: > 100 µM (inactive)
[9]
  GI50: > 100 µM (inactive)
[10]
  GI50: > 100 µM (inactive)
[11]
  GI50: > 100 µM (inactive)
[12]
  GI50: 55 µM (inactive)
[13]
  GI50: > 100 µM (inactive)
[14]
  GI50: > 100 µM (inactive)
[15]
  GI50: > 100 µM (inactive)
[16]
  GI50: > 100 µM (inactive)
[17]
  GI50: > 100 µM (inactive)
[18]
  GI50: > 100 µM
[19]
  GI50: > 100 µM (inactive)
[20]
  GI50: > 100 µM (inactive)
[21]
  GI50: > 100 µM (inactive)
[22]
  GI50: > 100 µM (inactive)
[23]
  GI50: > 100 µM (inactive)
[24]
  GI50: > 100 µM (inactive)
[25]
  GI50: > 100 µM (inactive)
[26]
  GI50: > 100 µM (inactive)
[27]
  GI50: > 100 µM (inactive)
[28]
  GI50: > 100 µM (inactive)
[29]
  GI50: > 100 µM (inactive)
[30]
  GI50: > 100 µM (inactive)
[31]
  GI50: > 100 µM (inactive)
[32]
  GI50: > 100 µM (inactive)
[33]
  GI50: > 100 µM (inactive)
[34]
  GI50: > 100 µM (inactive)
[35]
  GI50: > 100 µM (inactive)
[36]
  GI50: > 100 µM (inactive)
[37]
  GI50: > 100 µM (inactive)
[38]
  GI50: > 100 µM (inactive)
[39]
  GI50: > 100 µM (inactive)
[40]
  GI50: > 100 µM (inactive)
[41]
  GI50: > 100 µM (inactive)
[42]
  GI50: > 100 µM (inactive)
[43]
  GI50: > 100 µM (inactive)
[44]
  GI50: > 100 µM (inactive)
[45]
  GI50: > 100 µM (inactive)
[46]
  GI50: > 100 µM (inactive)
[47]
  GI50: > 100 µM (inactive)
[48]
  GI50: > 100 µM (inactive)
[49]
  GI50: > 100 µM (inactive)
[50]
  GI50: > 100 µM (inactive)
[51]
  GI50: > 100 µM (inactive)
[52]
  GI50: > 100 µM (inactive)
[53]
  GI50: > 100 µM (inactive)
[54]
  GI50: > 100 µM (inactive)
[55]
  GI50: > 100 µM (inactive)
[56]
  GI50: > 100 µM (inactive)
[57]
  GI50: > 100 µM (inactive)

## O=C1NC(N2CCOCC2)=N/C1=C\c1ccc(Cl)cc1
[1]
  GI50: > 100 µM (inactive)
[2]
  GI50: > 100 µM (inactive)
[3]
  GI50: > 100 µM (inactive)
[4]
  GI50: > 100 µM (inactive)
[5]
  GI50: > 100 µM (inactive)
[6]
  GI50: > 100 µM (inactive)
[7]
  GI50: > 100 µM (inactive)
[58]
  GI50: > 100 µM (inactive)
[8]
  GI50: > 100 µM (inactive)
[9]
  GI50: > 100 µM (inactive)
[10]
  GI50: > 100 µM (inactive)
[11]
  GI50: > 100 µM (inactive)
[13]
  GI50: > 100 µM (inactive)
[14]
  GI50: > 100 µM (inactive)
[15]
  GI50: > 100 µM (inactive)
[16]
  GI50: > 100 µM (inactive)
[18]
  GI50: > 100 µM
[19]
  GI50: > 100 µM (inactive)
[20]
  GI50: > 100 µM (inactive)
[21]
  GI50: > 100 µM (inactive)
[22]
  GI50: > 100 µM (inactive)
[23]
  GI50: > 100 µM (inactive)
[24]
  GI50: > 100 µM (inactive)
[25]
  GI50: > 100 µM (inactive)
[26]
  GI50: > 100 µM (inactive)
[27]
  GI50: > 100 µM (inactive)
[28]
  GI50: > 100 µM (inactive)
[29]
  GI50: > 100 µM (inactive)
[30]
  GI50: > 100 µM (inactive)
[31]
  GI50: 60.8 µM (inactive)
[32]
  GI50: > 100 µM (inactive)
[33]
  GI50: > 100 µM (inactive)
[34]
  GI50: > 100 µM (inactive)
[35]
  GI50: > 100 µM (inactive)
[36]
  GI50: > 100 µM (inactive)
[59]
  GI50: > 100 µM (inactive)
[37]
  GI50: > 100 µM (inactive)
[38]
  GI50: > 100 µM (inactive)
[39]
  GI50: > 100 µM (inactive)
[40]
  GI50: > 100 µM (inactive)
[41]
  GI50: > 100 µM (inactive)
[43]
  GI50: > 100 µM (inactive)
[44]
  GI50: > 100 µM (inactive)
[45]
  GI50: > 100 µM (inactive)
[46]
  GI50: > 100 µM (inactive)
[47]
  GI50: > 100 µM (inactive)
[48]
  GI50: > 100 µM (inactive)
[49]
  GI50: > 100 µM (inactive)
[50]
  GI50: > 100 µM (inactive)
[51]
  GI50: > 100 µM (inactive)
[52]
  GI50: > 100 µM (inactive)
[53]
  GI50: > 100 µM (inactive)
[54]
  GI50: > 100 µM (inactive)
[56]
  GI50: > 100 µM (inactive)
[57]
  GI50: > 100 µM (inactive)

## COCCCN1C(=O)C2c3[nH]c4ccccc4c3C3CCC(C(C)(C)C)CC3C2C1=O (stereo unspecified)
[1]
  GI50: 21.7 µM (inactive)
[3]
  GI50: 27.7 µM (inactive)
[5]
  GI50: 32.1 µM (inactive)
[6]
  GI50: 21.3 µM (inactive)
[7]
  GI50: 35.6 µM (inactive)
[58]
  GI50: 20.3 µM (inactive)
[8]
  GI50: 58.9 µM (inactive)
[9]
  GI50: > 10 µM (inactive)
[11]
  GI50: 22.7 µM (inactive)
[12]
  GI50: 18.7 µM (inactive)
[13]
  GI50: 23.4 µM (inactive)
[14]
  GI50: 20.6 µM (inactive)
[15]
  GI50: 20.7 µM (inactive)
[16]
  GI50: 24.7 µM (inactive)
[17]
  GI50: > 10 µM (inactive)
[18]
  GI50: 19.8 µM
[19]
  GI50: 31.5 µM (inactive)
[20]
  GI50: > 100 µM (inactive)
[21]
  GI50: 18.4 µM (inactive)
[22]
  GI50: > 100 µM (inactive)
[23]
  GI50: > 10 µM (inactive)
[24]
  GI50: 17.7 µM (inactive)
[25]
  GI50: 19.1 µM (inactive)
[27]
  GI50: 29.7 µM (inactive)
[28]
  GI50: 15.3 µM (inactive)
[29]
  GI50: 35.5 µM (inactive)
[30]
  GI50: 24.1 µM (inactive)
[31]
  GI50: 47.6 µM (inactive)
[32]
  GI50: 21.4 µM (inactive)
[33]
  GI50: 19.8 µM (inactive)
[34]
  GI50: 34.4 µM (inactive)
[35]
  GI50: 27.4 µM (inactive)
[36]
  GI50: 30.6 µM (inactive)
[59]
  GI50: 54.3 µM (inactive)
[37]
  GI50: 33 µM (inactive)
[38]
  GI50: 27 µM (inactive)
[39]
  GI50: 17.4 µM (inactive)
[40]
  GI50: 29.5 µM (inactive)
[42]
  GI50: 27.4 µM (inactive)
[43]
  GI50: 43.7 µM (inactive)
[44]
  GI50: 20.5 µM (inactive)
[45]
  GI50: 22.6 µM (inactive)
[46]
  GI50: 32.6 µM (inactive)
[47]
  GI50: 22.6 µM (inactive)
[48]
  GI50: 48.4 µM (inactive)
[49]
  GI50: 59.3 µM (inactive)
[50]
  GI50: 25.4 µM (inactive)
[51]
  GI50: 22.4 µM (inactive)
[52]
  GI50: 25.4 µM (inactive)
[53]
  GI50: 27.4 µM (inactive)
[54]
  GI50: 21.7 µM (inactive)
[56]
  GI50: > 10 µM (inactive)
[57]
  GI50: 38 µM (inactive)

## Oc1c(CN2CCN(c3ccccc3)CC2)cc(Br)c2cccnc12
[1]
  GI50: 2.33 µM (inactive)
[2]
  GI50: 0.995 µM (active)
[3]
  GI50: 2.96 µM (inactive)
[4]
  GI50: 2.17 µM (inactive)
[5]
  GI50: 3.33 µM (inactive)
[6]
  GI50: 1.46 µM (inactive)
[7]
  GI50: 0.855 µM (active)
[8]
  GI50: 1.63 µM (inactive)
[9]
  GI50: 29.6 µM (inactive)
[10]
  GI50: 4.07 µM (inactive)
[11]
  GI50: 1.4 µM (inactive)
[12]
  GI50: 0.244 µM (active)
[13]
  GI50: 0.485 µM (active)
[14]
  GI50: 0.966 µM (active)
[15]
  GI50: 1.56 µM (inactive)
[16]
  GI50: 0.349 µM (active)
[18]
  GI50: 0.135 µM
[19]
  GI50: 1.7 µM (inactive)
[20]
  GI50: 0.834 µM (active)
[21]
  GI50: 1.14 µM (inactive)
[22]
  GI50: 3.21 µM (inactive)
[23]
  GI50: 0.206 µM (active)
[24]
  GI50: 0.671 µM (active)
[25]
  GI50: 4.22 µM (inactive)
[26]
  GI50: 2.2 µM (inactive)
[27]
  GI50: 1.46 µM (inactive)
[28]
  GI50: 10.9 µM (inactive)
[29]
  GI50: 0.721 µM (active)
[30]
  GI50: 1.21 µM (inactive)
[31]
  GI50: 3.78 µM (inactive)
[32]
  GI50: 0.991 µM (active)
[33]
  GI50: 0.448 µM (active)
[34]
  GI50: 2.62 µM (inactive)
[35]
  GI50: 0.621 µM (active)
[36]
  GI50: 1.4 µM (inactive)
[59]
  GI50: 0.393 µM (active)
[37]
  GI50: 1.69 µM (inactive)
[38]
  GI50: 1.82 µM (inactive)
[39]
  GI50: 0.423 µM (active)
[40]
  GI50: 1.21 µM (inactive)
[41]
  GI50: 0.52 µM (active)
[42]
  GI50: 0.805 µM (active)
[43]
  GI50: 0.893 µM (active)
[44]
  GI50: 7.52 µM (inactive)
[45]
  GI50: 0.271 µM (active)
[46]
  GI50: 1.43 µM (inactive)
[47]
  GI50: 0.361 µM (active)
[48]
  GI50: 1.32 µM (inactive)
[49]
  GI50: 3.61 µM (inactive)
[50]
  GI50: 0.284 µM (active)
[51]
  GI50: 1.33 µM (inactive)
[53]
  GI50: 2.07 µM (inactive)
[54]
  GI50: 0.555 µM (active)
[55]
  GI50: 7.46 µM (inactive)
[56]
  GI50: 1.01 µM (active)
[57]
  GI50: 3.97 µM (inactive)

Reference: ChEMBL document CHEMBL1201862, “PubChem BioAssay data set” (2004)
